Measured values taken from ChEMBL document CHEMBL4665642, “Anticancer profile of newly synthesized BRAF inhibitors possess 5-(pyrimidin-4-yl)imidazo[2,1-b]thiazole scaffold” (Bioorg Med Chem, 2019).

How the values were obtained:
Format in all cases: functional
Settings in all cases: read-out: Activity
SF-539 = assay: Cytotoxicity against human SF-539 cells assessed as cell viability at 10 uM incubated for 48 hrs by sulforhodamine B assay relative to control
OVCAR-5 = assay: Cytotoxicity against human OVCAR-5 cells assessed as cell viability at 10 uM incubated for 48 hrs by sulforhodamine B assay relative to control
SW-620 = assay: Cytotoxicity against human SW-620 cells assessed as cell viability at 10 uM incubated for 48 hrs by sulforhodamine B assay relative to control
Malme-3M = assay: Cytotoxicity against human Malme-3M cells assessed as cell viability at 10 uM incubated for 48 hrs by sulforhodamine B assay relative to control
SK-MEL-2 = assay: Cytotoxicity against human SK-MEL-2 cells assessed as cell viability at 10 uM incubated for 48 hrs by sulforhodamine B assay relative to control
SR = assay: Cytotoxicity against human SR cells assessed as cell viability at 10 uM incubated for 48 hrs by sulforhodamine B assay relative to control
A549 = assay: Cytotoxicity against human A549 cells assessed as cell viability at 10 uM incubated for 48 hrs by sulforhodamine B assay relative to control
U-251 = assay: Cytotoxicity against human U-251 cells assessed as cell viability at 10 uM incubated for 48 hrs by sulforhodamine B assay relative to control
TK-10 = assay: Cytotoxicity against human TK-10 cells assessed as cell viability at 10 uM incubated for 48 hrs by sulforhodamine B assay relative to control
K562 = assay: Cytotoxicity against human K562 cells assessed as cell viability at 10 uM incubated for 48 hrs by sulforhodamine B assay relative to control
NCI-H226 = assay: Cytotoxicity against human NCI-H226 cells assessed as cell viability at 10 uM incubated for 48 hrs by sulforhodamine B assay relative to control
SNB-75 = assay: Cytotoxicity against human SNB-75 cells assessed as cell viability at 10 uM incubated for 48 hrs by sulforhodamine B assay relative to control
SF-295 = assay: Cytotoxicity against human SF-295 cells assessed as cell viability at 10 uM incubated for 48 hrs by sulforhodamine B assay relative to control
UACC-257 = assay: Cytotoxicity against human UACC-257 cells assessed as cell viability at 10 uM incubated for 48 hrs by sulforhodamine B assay relative to control
MDA-MB-468 = assay: Cytotoxicity against human MDA-MB-468 cells assessed as cell viability at 10 uM incubated for 48 hrs by sulforhodamine B assay relative to control
SF-268 = assay: Cytotoxicity against human SF-268 cells assessed as cell viability at 10 uM incubated for 48 hrs by sulforhodamine B assay relative to control
CCRF-CEM = assay: Cytotoxicity against human CCRF-CEM cells assessed as cell viability at 10 uM incubated for 48 hrs by sulforhodamine B assay relative to control
NCI-H23 = assay: Cytotoxicity against human NCI-H23 cells assessed as cell viability at 10 uM incubated for 48 hrs by sulforhodamine B assay relative to control
NCI-H322M = assay: Cytotoxicity against human NCI-H322M cells assessed as cell viability at 10 uM incubated for 48 hrs by sulforhodamine B assay relative to control
RPMI-8226 = assay: Cytotoxicity against human RPMI-8226 cells assessed as cell viability at 10 uM incubated for 48 hrs by sulforhodamine B assay relative to control
M14 = assay: Cytotoxicity against human M14 cells assessed as cell viability at 10 uM incubated for 48 hrs by sulforhodamine B assay relative to control
OVCAR-8 = assay: Cytotoxicity against human OVCAR-8 cells assessed as cell viability at 10 uM incubated for 48 hrs by sulforhodamine B assay relative to control
786-0 = assay: Cytotoxicity against human 786-0 cells assessed as cell viability at 10 uM incubated for 48 hrs by sulforhodamine B assay relative to control
NCI-H460 = assay: Cytotoxicity against human NCI-H460 cells assessed as cell viability at 10 uM incubated for 48 hrs by sulforhodamine B assay relative to control
MDA-MB-435 = assay: Cytotoxicity against human MDA-MB-435 cells assessed as cell viability at 10 uM incubated for 48 hrs by sulforhodamine B assay relative to control
IGROV-1 = assay: Cytotoxicity against human IGROV-1 cells assessed as cell viability at 10 uM incubated for 48 hrs by sulforhodamine B assay relative to control
HCC 2998 = assay: Cytotoxicity against human HCC 2998 cells assessed as cell viability at 10 uM incubated for 48 hrs by sulforhodamine B assay relative to control
COLO 205 = assay: Cytotoxicity against human COLO 205 cells assessed as cell viability at 10 uM incubated for 48 hrs by sulforhodamine B assay relative to control
NCI/ADR-RES = assay: Cytotoxicity against human NCI/ADR-RES cells assessed as cell viability at 10 uM incubated for 48 hrs by sulforhodamine B assay relative to control
DU-145 = assay: Cytotoxicity against human DU-145 cells assessed as cell viability at 10 uM incubated for 48 hrs by sulforhodamine B assay relative to control
UO-31 = assay: Cytotoxicity against human UO-31 cells assessed as cell viability at 10 uM incubated for 48 hrs by sulforhodamine B assay relative to control
HCT-15 = assay: Cytotoxicity against human HCT-15 cells assessed as cell viability at 10 uM incubated for 48 hrs by sulforhodamine B assay relative to control
HL-60(TB) = assay: Cytotoxicity against human HL-60(TB) cells assessed as cell viability at 10 uM incubated for 48 hrs by sulforhodamine B assay relative to control
Hs-578T = assay: Cytotoxicity against human HS-578T cells assessed as cell viability at 10 uM incubated for 48 hrs by sulforhodamine B assay relative to control
T47D = assay: Cytotoxicity against human T47D cells assessed as cell viability at 10 uM incubated for 48 hrs by sulforhodamine B assay relative to control
MDA-MB-231 = assay: Cytotoxicity against human MDA-MB-231 cells assessed as cell viability at 10 uM incubated for 48 hrs by sulforhodamine B assay relative to control
SK-MEL-5 = assay: Cytotoxicity against human SK-MEL-5 cells assessed as cell viability at 10 uM incubated for 48 hrs by sulforhodamine B assay relative to control
ACHN = assay: Cytotoxicity against human ACHN cells assessed as cell viability at 10 uM incubated for 48 hrs by sulforhodamine B assay relative to control
BT-549 = assay: Cytotoxicity against human BT-549 cells assessed as cell viability at 10 uM incubated for 48 hrs by sulforhodamine B assay relative to control
SK-OV-3 = assay: Cytotoxicity against human SK-OV-3 cells assessed as cell viability at 10 uM incubated for 48 hrs by sulforhodamine B assay relative to control

Structure (SMILES)	viability at 10 µM (SF-539)	viability at 10 µM (OVCAR-5)	viability at 10 µM (SW-620)	viability at 10 µM (Malme-3M)	viability at 10 µM (SK-MEL-2)	viability at 10 µM (SR)	viability at 10 µM (A549)	viability at 10 µM (U-251)	viability at 10 µM (TK-10)	viability at 10 µM (K562)	viability at 10 µM (NCI-H226)	viability at 10 µM (SNB-75)	viability at 10 µM (SF-295)	viability at 10 µM (UACC-257)	viability at 10 µM (MDA-MB-468)	viability at 10 µM (SF-268)	viability at 10 µM (CCRF-CEM)	viability at 10 µM (NCI-H23)	viability at 10 µM (NCI-H322M)	viability at 10 µM (RPMI-8226)	further results
O=S(=O)(NCCCNc1nccc(-c2c(-c3cccc(F)c3)nc3sccn23)n1)c1ccc(C(F)(F)F)cc1	110%	129%	115%	127%	89.9%	109%	83.5%	95.1%	107%	69.8%	77.5%	86.4%	104%	110%	102%	75.6%	89.4%	90%	104%	87.4%	viability at 10 µM (M14): 92.4%; viability at 10 µM (OVCAR-8): 75.7%; viability at 10 µM (786-0): 80.1%; viability at 10 µM (NCI-H460): 98.7%; viability at 10 µM (MDA-MB-435): 74.2%; viability at 10 µM (IGROV-1): 66.2%; viability at 10 µM (HCC 2998): 125%; viability at 10 µM (COLO 205): 91%; viability at 10 µM (NCI/ADR-RES): 87.2%; viability at 10 µM (DU-145): 94.7%; viability at 10 µM (UO-31): 57.9%; viability at 10 µM (HCT-15): 78.8%; viability at 10 µM (HL-60(TB)): 127%; viability at 10 µM (Hs-578T): 83.5%; viability at 10 µM (T47D): 56%; viability at 10 µM (MDA-MB-231): 96.5%; viability at 10 µM (SK-MEL-5): 91.1%; viability at 10 µM (ACHN): 87.8%; viability at 10 µM (BT-549): 99.8%; viability at 10 µM (SK-OV-3): 77.7%
O=S(=O)(NCCNc1nccc(-c2c(-c3cccc(F)c3)nc3sccn23)n1)c1ccc(F)cc1	83.2%	92.5%	63%	81.1%	67.2%	38%	32.1%	58.4%	80.4%	38.8%	45.6%	67.7%	67.5%	79.1%	63.1%	53.8%	54.7%	79.3%	64%	63.4%	viability at 10 µM (M14): 67.8%; viability at 10 µM (OVCAR-8): 47.3%; viability at 10 µM (786-0): 58.7%; viability at 10 µM (NCI-H460): 35%; viability at 10 µM (MDA-MB-435): 31.5%; viability at 10 µM (IGROV-1): 11.3%; viability at 10 µM (HCC 2998): 80.8%; viability at 10 µM (COLO 205): 39.5%; viability at 10 µM (NCI/ADR-RES): 66.7%; viability at 10 µM (DU-145): 52.4%; viability at 10 µM (UO-31): 23.2%; viability at 10 µM (HCT-15): 32.2%; viability at 10 µM (HL-60(TB)): 95.1%; viability at 10 µM (Hs-578T): 68%; viability at 10 µM (T47D): 40.4%; viability at 10 µM (MDA-MB-231): 76.6%; viability at 10 µM (SK-MEL-5): 35.4%; viability at 10 µM (ACHN): 35.8%; viability at 10 µM (BT-549): 78.6%; viability at 10 µM (SK-OV-3): 79.9%
O=C(NCCNc1nccc(-c2c(-c3cccc(F)c3)nc3sccn23)n1)C1CCCCC1	84.9%	141%	114%	130%	60.1%	91%	78.8%	90.5%	88.6%	74.2%	60.9%	88.6%	93.6%	113%	59.5%	77.3%	70%	97%	104%	81.6%	viability at 10 µM (M14): 73.6%; viability at 10 µM (OVCAR-8): 56.9%; viability at 10 µM (786-0): 69.1%; viability at 10 µM (NCI-H460): 91.6%; viability at 10 µM (MDA-MB-435): 65.5%; viability at 10 µM (IGROV-1): 45.1%; viability at 10 µM (HCC 2998): 104%; viability at 10 µM (COLO 205): 53.5%; viability at 10 µM (NCI/ADR-RES): 66.9%; viability at 10 µM (DU-145): 81.6%; viability at 10 µM (UO-31): 40.3%; viability at 10 µM (HCT-15): 61%; viability at 10 µM (HL-60(TB)): 122%; viability at 10 µM (Hs-578T): 91.8%; viability at 10 µM (T47D): 30.2%; viability at 10 µM (MDA-MB-231): 104%; viability at 10 µM (SK-MEL-5): 59.6%; viability at 10 µM (ACHN): 67.1%; viability at 10 µM (BT-549): 93.9%; viability at 10 µM (SK-OV-3): 50.1%
O=S(=O)(NCCNc1nccc(-c2c(-c3cccc(F)c3)nc3sccn23)n1)c1ccccc1	65.5%	79.6%	44.5%	68.5%	51.8%	29.2%	25.2%	44%	59.5%	23.9%	34.5%	71.5%	47.4%	65.3%	43.6%	43.5%	33.6%	56.1%	51.5%	43.5%	viability at 10 µM (M14): 41.4%; viability at 10 µM (OVCAR-8): 33.9%; viability at 10 µM (786-0): 47.4%; viability at 10 µM (NCI-H460): 25.9%; viability at 10 µM (MDA-MB-435): 17.4%; viability at 10 µM (IGROV-1): 4.9%; viability at 10 µM (HCC 2998): 66.3%; viability at 10 µM (COLO 205): 24.1%; viability at 10 µM (NCI/ADR-RES): 46.3%; viability at 10 µM (DU-145): 40%; viability at 10 µM (UO-31): 15.4%; viability at 10 µM (HCT-15): 25.8%; viability at 10 µM (HL-60(TB)): 63.1%; viability at 10 µM (Hs-578T): 55.5%; viability at 10 µM (T47D): 18.8%; viability at 10 µM (MDA-MB-231): 66%; viability at 10 µM (SK-MEL-5): 19.1%; viability at 10 µM (ACHN): 26%; viability at 10 µM (BT-549): 50.4%; viability at 10 µM (SK-OV-3): 57.1%
